Measurements taken from US12319652B2, “Salts and solid forms of (R)-1-(5-methoxy-1H-indol-1-yl)-N,N-dimethylpropan-2-amine” (priority 2021, dated 2025).

Columns and labels:
[1] = Qualitative solubility screen of Compound 1 Fumarate in solvents; type: physicochemical
Description: The salt compound also dissolved in refluxing methylisobutyketone (MIBK) at 15 vol concentration. Consistent with Example 1, the solutions formed were cooled and the IPA, 2-MeTHF and MIBK solutions yielded solid material on cooling. The solid product obtained from MIBK was analyzed by XRPD, TG and ^1H NMR—the XRPD diffractogram is provided as FIG. 1 and the ^1H NMR spectrum is provided as FIG. 2.
Compound 1·Fumarate was soluble in many of the common solvents assessed (predominantly Classes 2 and 3 solvents) at 5.0 vol (200 mg/ml), 10.0 vol, 15.0 vol and 20.0 vol (refer to Table). Solids were isolated on cooling from isopropanol (IPA, 5.0 vol), 2-MeTHF (5.0 vol) and methylisobutylketone (MIBK, 15.0 vol). The products from IPA and 2-MeTHF were gums, and not pursued further.
Compound 1 Fumarate (batch 1, 25 mg, 1 wt) was weighed out in 20 separate vials to qualitatively examine the solubility in an array of diverse solvents. […] If insoluble at 5 vol, the solvent quantity was increased to 10 vol, 15 vol and 20 vol of the respective solvent. The suspensions that occurred upon cooling down were centrifuged and the solvent wet pellets were analysed by XRPD. The insoluble suspensions were additionally worked up for XRPD analysis. The resultant powder patterns were subsequently cross-referenced against the input supplied material.

[2] = Suspension equilibration of compound 1 fumarate at 20 and 40° C.; conditions: 10 vol total
Description: Amorphous compound 1 fumarate was subjected to this technique at ambient temperature (20° C.) and at elevated temperature (40° C.), in a diverse range of solvents.
Amorphous compound 1 fumarate underwent suspension equilibration in 19 single solvents at two different temperature set points (20 and 40° C.). The products were isolated by centrifugation and analysed wet by XRPD. After drying, the samples were reanalyzed.
At 20° C., dissolution or gumming was initially observed in the presence of most solvents; after several days, five of the gums had mobilised to give stable suspensions (refer to entries, Table 61). The products were isolated via centrifugation and the wet pellets were analysed by XRPD, oven dried and reanalysed by XRPD, TGA, DSC and ^1H NMR.
The companion screen performed at 40° C., yielded no hits. Consequently, the screen was repeated in the presence of an appropriate polarity modifier (either heptane or tBME), to ensure activity of the solvent was maintained while generating stable suspensions from the onset (refer to Table 62).
Separate portions of compound 1 (ca 50 mg, 1.0 wt.) were charged to separate vessels. The appropriate solvents (e.g. 250 μl, 5.0 vol), as described in Table and Table were charged to the vessels and the mixtures were stirred for several days at their relevant temperatures e.g. 20 to 40° C. After this time the products were cooled, isolated by centrifugation, analyzed as wet pellet by XRPD and dried under reduced pressure at 40° C. and re-analyzed by XRPD and companion analyses for evidence of alternative crystalline forms (FIGS. 74-77).

[3] = Heptane (7 parts)/2-Methyl THF (3 part)
[4] = Heptane (7 parts)/2-Propanol (3 part)
[5] = Heptane (7 parts)/Acetone (3 part)
[6] = Heptane (7 parts)/Acetonitrile (3 part)
[7] = Heptane (7 parts)/Chlorobenzene (3 part)
[8] = Heptane (7 parts)/Dichloromethane (3 part)
[9] = Heptane (7 parts)/Ethanol (3 part)
[10] = Heptane (7 parts)/Ethyl acetate (3 part)
[11] = Heptane (7 parts)/Ethyl formate (3 part)
[12] = Heptane (7 parts)/Heptane (3 part)
[13] = Heptane (7 parts)/Isopropyl acetate (3 part)
[14] = Heptane (7 parts)/Methanol (3 part)
[15] = Heptane (7 parts)/Methyl acetate (3 part)
[16] = Heptane (7 parts)/Methylethyl ketone (3 part)
[17] = Heptane (7 parts)/Nitromethane (3 part)
[18] = Heptane (7 parts)/Tetrahydrofuran (3 part)
[19] = Heptane (7 parts)/Toluene (3 part)
[20] = Heptane (7 parts)/Water (3 part)
[21] = Heptane (7 parts)/tert-Butylmethyl ether (3 part)

COc1ccc2c(ccn2C[C@@H](C)[NH+](C)C)c1.O=C(O)/C=C/C(=O)O [Compound 1 fumarate, (R)-1-(5-methoxy-1H-indol-1-yl)-N,N-dimethylpropan-2-amine fumarate]
Solid on cooling ([1]; 2-MeTHF, 5 vol): Yes
Solution at reflux ([1]; 2-MeTHF, 5 vol (200 mg/ml), fumarate): ✓
Solution at reflux ([1]; 2-MeTHF, 5 vol (200 mg/ml), listed as fumarate salt, fumarate): soluble
Solution at 20° C. ([1]; Acetone, 5 vol (200 mg/ml), fumarate): ✓
Solution at 20° C. ([1]; Acetone, 5 vol (200 mg/ml), listed as fumarate salt, fumarate): soluble
Solution at 20° C. ([1]; Butanol, 5 vol (200 mg/ml), fumarate): ✓
Solution at 20° C. ([1]; Butanol, 5 vol (200 mg/ml), listed as fumarate salt, fumarate): soluble
Solution at 20° C. ([1]; DCM, 5 vol (200 mg/ml), fumarate): ✓
Solution at 20° C. ([1]; DCM, 5 vol (200 mg/ml), listed as fumarate salt, fumarate): soluble
Solid on cooling ([1]; Dioxane, 5 vol): No
Solution at 40° C. ([1]; Dioxane, 5 vol (200 mg/ml), fumarate): ✓
Solution at 40° C. ([1]; Dioxane, 5 vol (200 mg/ml), listed as fumarate salt, fumarate): soluble
Solution at 20° C. ([1]; Ethanol, 5 vol (200 mg/ml), fumarate): ✓
Solution at 20° C. ([1]; Ethanol, 5 vol (200 mg/ml), listed as fumarate salt, fumarate): soluble
Solid on cooling ([1]; IPA, 5 vol): Yes
Solution at 40° C. ([1]; IPA, 5 vol (200 mg/ml), fumarate): ✓
Solution at 40° C. ([1]; IPA, 5 vol (200 mg/ml), listed as fumarate salt, fumarate): soluble
Solution at 20° C. ([1]; MEK, 5 vol (200 mg/ml), fumarate): ✓
Solution at 20° C. ([1]; MEK, 5 vol (200 mg/ml), listed as fumarate salt, fumarate): soluble
Solid on cooling ([1]; MIBK, 10, 15 & 20 vol): Yes
Solution at reflux ([1]; MIBK, 10, 15 & 20 vol): ✓
Dissolution in refluxing methylisobutyketone (MIBK) ([1]; MIBK, reflux, 15 vol concentration): dissolved
Solution at 20° C. ([1]; MeCN, 5 vol (200 mg/ml), fumarate): ✓
Solution at 20° C. ([1]; MeCN, 5 vol (200 mg/ml), listed as fumarate salt, fumarate): soluble
Solution at 20° C. ([1]; Methanol, 5 vol (200 mg/ml), fumarate): ✓
Solution at 20° C. ([1]; Methanol, 5 vol (200 mg/ml), listed as fumarate salt, fumarate): soluble
Solution at 20° C. ([1]; THF, 5 vol (200 mg/ml), fumarate): ✓
Solution at 20° C. ([1]; THF, 5 vol (200 mg/ml), listed as fumarate salt, fumarate): soluble
Solution at 20° C. ([1]; Water, 5 vol (200 mg/ml), fumarate): ✓
Solution at 20° C. ([1]; Water, 5 vol (200 mg/ml), listed as fumarate salt, fumarate): soluble
Observations (t = 0 @ 40° C.) [2, 3]: Gum
XRPD (post oven dried) [2, 3]: Pattern #1
XRPD (wet) [2, 3]: Pattern #1
Observations (t = 3 d) @ 40° C.) [2, 4]: Suspension
XRPD (post oven dried) [2, 4]: Pattern #1
XRPD (wet) [2, 4]: Pattern #1
Observations (t = 0 @ 40° C.) [2, 5]: Gum
Observations (t = 1 d) @ 40° C.) [2, 5]: Gum
Observations (t = 3 d) @ 40° C.) [2, 5]: Gum/oil
Observations (t = 7 d @ 40° C.) [2, 5]: Gum
XRPD (post oven dried) [2, 5]: Pattern #1
XRPD (wet) [2, 5]: Pattern #1
Observations (t = 0 @ 40° C.) [2, 6]: Oil (biphasic)
Observations (t = 1 d) @ 40° C.) [2, 6]: Oil (biphasic)
Observations (t = 3 d) @ 40° C.) [2, 6]: Oil (biphasic)
Observations (t = 7 d @ 40° C.) [2, 6]: Oil (biphasic)
Observations (t = 0 @ 40° C.) [2, 7]: Gum
Observations (t = 1 d) @ 40° C.) [2, 7]: Gum
XRPD (post oven dried) [2, 7]: Pattern #1
XRPD (wet) [2, 7]: Pattern #1
XRPD (post oven dried) [2, 8]: Pattern #1
XRPD (wet) [2, 8]: Pattern #1
Observations (t = 3 d) @ 40° C.) [2, 9]: Suspension
XRPD (post oven dried) [2, 9]: Pattern #1
XRPD (wet) [2, 9]: Pattern #1
Observations (t = 0 @ 40° C.) [2, 10]: Gum
Observations (t = 1 d) @ 40° C.) [2, 10]: Gum
Observations (t = 3 d) @ 40° C.) [2, 10]: Gum
Observations (t = 7 d @ 40° C.) [2, 10]: Oil/gum
Observations (t = 3 d) @ 40° C.) [2, 11]: Gum
XRPD (post oven dried) [2, 11]: Pattern #1
XRPD (wet) [2, 11]: Pattern #1
Observations (t = 0 @ 40° C.) [2, 12]: Gum
Observations (t = 1 d) @ 40° C.) [2, 12]: Gum
XRPD (post oven dried) [2, 12]: Pattern #1
XRPD (wet) [2, 12]: Pattern #1
Observations (t = 0 @ 40° C.) [2, 13]: Gum
XRPD (post oven dried) [2, 13]: Pattern #1
XRPD (wet) [2, 13]: Pattern #1
Observations (t = 0 @ 40° C.) [2, 14]: Oil (biphasic)
Observations (t = 1 d) @ 40° C.) [2, 14]: Oil (biphasic)
Observations (t = 3 d) @ 40° C.) [2, 14]: Biphasic (oil)
Observations (t = 7 d @ 40° C.) [2, 14]: Oil (biphasic)
XRPD (post oven dried) [2, 14]: Pattern #1
XRPD (wet) [2, 14]: Pattern #1
XRPD (post oven dried) [2, 15]: Pattern #1
XRPD (wet) [2, 15]: Pattern #1
Observations (t = 0 @ 40° C.) [2, 16]: Gum
XRPD (post oven dried) [2, 16]: Pattern #1
XRPD (wet) [2, 16]: Pattern #1
Observations (t = 0 @ 40° C.) [2, 17]: Oil (biphasic)
Observations (t = 1 d) @ 40° C.) [2, 17]: Oil (biphasic)
Observations (t = 3 d) @ 40° C.) [2, 17]: Oil (biphasic)
Observations (t = 0 @ 40° C.) [2, 18]: Gum
XRPD (post oven dried) [2, 18]: Pattern #1
XRPD (wet) [2, 18]: Pattern #1
Observations (t = 0 @ 40° C.) [2, 19]: Gum
Observations (t = 1 d) @ 40° C.) [2, 19]: Gum
XRPD (post oven dried) [2, 19]: Pattern #1
XRPD (wet) [2, 19]: Pattern #1
Observations (t = 0 @ 40° C.) [2, 20]: Oil (biphasic)
Observations (t = 1 d) @ 40° C.) [2, 20]: Oil (biphasic)
Observations (t = 3 d) @ 40° C.) [2, 20]: Oil (biphasic)
Observations (t = 7 d @ 40° C.) [2, 20]: Oil (biphasic)
Observations (t = 0 @ 40° C.) [2, 21]: Gum
Observations (t = 1 d) @ 40° C.) [2, 21]: Gum
Observations (t = 3 d) @ 40° C.) [2, 21]: Gum
Observations (t = 7 d @ 40° C.) [2, 21]: Oil/gum
